Assay results reported in US20160145267A1, “HETEROARYL SUBSTITUTED PYRAZOLES” (BAYER PHARMA AKTIENGESELLSCHAFT, priority 2013, published 2016).
pIC50: −log10 of the molar value. Where two headings read alike, the source gives them in different places.

How the values were obtained:
[1] = molecular target: T1, catalytic domain of human Bub1 (amino acids 704-1085) (Homo sapiens, UniProt O43683); experiment: Bub1 kinase assay (TR-FRET); format: biochemical
T1 construct: catalytic domain of human Bub1 (amino acids 704-1085); His6 (N); made in house; host or cells: Hi5 insect cells
T1 sequence (O43683 704-1085): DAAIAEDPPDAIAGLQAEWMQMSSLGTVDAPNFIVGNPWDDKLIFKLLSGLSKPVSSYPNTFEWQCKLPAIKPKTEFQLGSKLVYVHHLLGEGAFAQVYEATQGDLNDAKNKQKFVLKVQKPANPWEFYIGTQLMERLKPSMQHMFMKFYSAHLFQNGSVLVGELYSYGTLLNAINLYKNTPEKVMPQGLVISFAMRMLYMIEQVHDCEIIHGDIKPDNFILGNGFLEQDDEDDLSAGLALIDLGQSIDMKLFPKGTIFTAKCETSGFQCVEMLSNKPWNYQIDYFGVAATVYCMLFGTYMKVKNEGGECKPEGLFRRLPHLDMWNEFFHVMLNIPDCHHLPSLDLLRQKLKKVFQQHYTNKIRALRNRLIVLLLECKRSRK
Experimental: To this end, 100-fold concentrated compound solutions (in DMSO) were previously prepared by serial dilution (1:3.4) of 2 mM stocks in a clear low volume 384-well source microtiter plate (Greiner Bio-One, Frickenhausen, Germany), from which 50 nL of compounds were transferred into a black low volume test microtiter plate from the same supplier. […] The resulting mixture (5 μL final volume) was incubated at 22° C. during 60 min., and the reaction was stopped by the addition of 5 μL of an aqueous EDTA-solution (50 mM EDTA, in 100 mM HEPES pH 7.5 and 0.2% (w/v) bovine serum albumin) which also contained the TR-FRET detection reagents (0.2 μM streptavidin-XL665 [Cisbio Bioassays, Codolet, France] and 1 nM anti-phoshoSerine antibody [Merck Millipore, cat. #35-001] and 0.4 nM LANCE EU-W1024 labeled anti-mouse IgG antibody [Perkin-Elmer, product no. AD0077, alternatively a Terbium-cryptate-labeled anti-mouse IgG antibody from Cisbio Bioassays can be used]). The stopped reaction mixture was further incubated 1 h at 22° C. in order to allow the formation of complexes between peptides and detection reagents. Subsequently, the amount of product was evaluated by measurement of the resonance energy transfer from the Eu-chelate-antibody complex recognizing the Phosphoserine residue to the streptavidin-XL665 bound to the biotin moiety of the peptide.

HeLa cell line = experiment: Proliferation assay (HeLa cell line); format: cell-based; conditions: Homo sapiens, 96 h, read-out: Biological Assay 2: Proliferation assay (HeLa cell line) median IC50
Experimental: Cultivated tumor cells (cells were ordered from ATCC, except HeLa-MaTu and HeLa-MaTu-ADR, which were ordered from EPO-GmbH, Berlin) were plated at a density of 1000 to 5000 cells/well, depending on the growth rate of the respective cell line, in a 96-well multititer plate in 200 μL of their respective growth medium supplemented 10% fetal calf serum. After 24 hours, the cells of one plate (zero-point plate) were stained with crystal violet (see below), while the medium of the other plates was replaced by fresh culture medium (200 μL), to which the test substances were added in various concentrations (0 μM, as well as in the range of 0.001-10 μM; the final concentration of the solvent dimethyl sulfoxide was 0.5%). The cells were incubated for 4 days in the presence of test substances. Cell proliferation was determined by staining the cells with crystal violet: the cells were fixed by adding 20 μL/measuring point of an 11% glutaric aldehyde solution for 15 minutes at room temperature. After three washing cycles of the fixed cells with water, the plates were dried at room temperature. The cells were stained by adding 100 μL/measuring point of a 0.1% crystal violet solution (pH 3.0). After three washing cycles of the stained cells with water, the plates were dried at room temperature. The dye was dissolved by adding 100 μl/measuring point of a 10% acetic acid solution. Absorbtion was determined by photometry at a wavelength of 595 nm. The change of cell number, in percent, was calculated by normalization of the measured values to the absorbtion values of the zero-point plate (=0%) and the absorbtion of the untreated (0 μm) cells (=100%). The IC50 values were determined by means of a 4 parameter fit.

[2] = 10 μM ATP, 1 μM peptide substrate, TR-FRET, read-out: Biological Assay 1: Bub1 kinase assay median IC50
[3] = 4 days incubation, crystal violet staining

## CCOc1cc(F)c(Cn2nc(-c3nc(NC(=O)NC4CCCCC4)c(OC)c(Nc4ccncn4)n3)c(C)c2C2CC2)c(F)c1 [Example 2-1-17, 1-cyclohexyl-3-{2-[5-cyclopropyl-1-(4-ethoxy-2,6-difluorobenzyl)-4-methyl-1H-pyrazol-3-yl]-5-methoxy-6-(pyrimidin-4-ylamino)pyrimidin-4-yl}urea]
[1]; [2]
  pIC50: 5.85
HeLa cell line
  pIC50: 5.26

## CCOc1cc(F)c(Cn2nc(-c3nc(N)c(NS(=O)(=O)CC)c(Nc4ccncc4)n3)c(C)c2C2CC2)c(F)c1 [Example 2-1-30, N-{4-amino-2-[5-cyclopropyl-1-(4-ethoxy-2,6-difluorobenzyl)-4-methyl-1H-pyrazol-3-yl]-6-(pyridin-4-ylamino)pyrimidin-5-yl}ethanesulfonamide]
[1]; [2]
  pIC50: 8.06
HeLa cell line
  pIC50: < 5.00

## CCOc1cc(F)c(Cn2nc(-c3nc(N)c(NC(=O)COC)c(Nc4ccncn4)n3)c(C)c2C2CC2)c(F)c1 [Example 2-1-28, N-{4-amino-2-[5-cyclopropyl-1-(4-ethoxy-2,6-difluorobenzyl)-4-methyl-1H-pyrazol-3-yl]-6-(pyrimidin-4-ylamino)pyrimidin-5-yl}-2-methoxyacetamide]
[1]
  pIC50: 7.89
HeLa cell line; [3]
  pIC50: 5.00

## CCOc1cc(F)c(Cn2nc(-c3nc(Nc4ccncn4)c(OCCOC)c(Nc4ccncn4)n3)c(C)c2C2CC2)c(F)c1 [Example 2-2-13, 2-[5-cyclopropyl-1-(4-ethoxy-2,6-difluorobenzyl)-4-methyl-1H-pyrazol-3-yl]-5-(2-methoxyethoxy)-N,N′-di(pyrimidin-4-yl)pyrimidine-4,6-diamine]
[1]
  pIC50: 6.92
HeLa cell line; [3]
  pIC50: 5.00

## CCOc1cc(F)c(Cn2nc(-c3nc(NC(=O)NC4CCCCC4)cc(Nc4ccncn4)n3)c(C)c2C2CC2)c(F)c1 [Example 2-1-13, 1-cyclohexyl-3-{2-[5-cyclopropyl-1-(4-ethoxy-2,6-difluorobenzyl)-4-methyl-1H-pyrazol-3-yl]-6-(pyrimidin-4-ylamino)pyrimidin-4-yl}urea]
[1]; [2]
  pIC50: 6.26

## CCOc1cc(F)c(Cn2nc(-c3nc(N)c(N4CCOCC4)c(Nc4ccncc4)n3)c(C)c2C2CC2)c(F)c1 [Example 2-1-6, 2-[5-cyclopropyl-1-(4-ethoxy-2,6-difluorobenzyl)-4-methyl-1H-pyrazol-3-yl]-5-(morpholin-4-yl)-N-(pyridin-4-yl)pyrimidine-4,6-diamine]
[1]; [2]
  pIC50: 7.92
HeLa cell line
  pIC50: 5.28

## CCOc1cc(F)c(Cn2nc(-c3nc(NC(=O)NC4CCCCC4)c(N4CCOCC4)c(Nc4ccncc4)n3)c(C)c2C2CC2)c(F)c1 [Example 2-1-20, 1-cyclohexyl-3-{2-[5-cyclopropyl-1-(4-ethoxy-2,6-difluorobenzyl)-4-methyl-1H-pyrazol-3-yl]-5-(morpholin-4-yl)-6-(pyridin-4-ylamino)pyrimidin-4-yl}urea]
[1]
  pIC50: 6.04
HeLa cell line; [3]
  pIC50: 5.48

## CCNC(=O)Nc1nc(-c2nn(Cc3c(F)cc(OCC)cc3F)c(C3CC3)c2C)nc(Nc2ccncc2)c1OC [Example 2-1-14, 1-{2-[5-cyclopropyl-1-(4-ethoxy-2,6-difluorobenzyl)-4-methyl-1H-pyrazol-3-yl]-5-methoxy-6-(pyridin-4-ylamino)pyrimidin-4-yl}-3-ethylurea]
[1]; [2]
  pIC50: 6.51
HeLa cell line
  pIC50: 5.42

## CCOc1cc(F)c(Cn2nc(-c3nc(Nc4ccncc4)c(OC)c(Nc4ccncc4)n3)c(C)c2C2CC2)c(F)c1 [Example 2-2-4, 2-[5-cyclopropyl-1-(4-ethoxy-2,6-difluorobenzyl)-4-methyl-1H-pyrazol-3-yl]-5-methoxy-N,N′-di(pyridin-4-yl)pyrimidine-4,6-diamine]
[1]; [2]
  pIC50: 6.51

## CCOc1cc(F)c(Cn2nc(-c3nc(N)nc(Nc4ccncc4)n3)c(C)c2C2CC2)c(F)c1 [Example 2-1-8, 6-[5-cyclopropyl-1-(4-ethoxy-2,6-difluorobenzyl)-4-methyl-1H-pyrazol-3-yl]-N-(pyridin-4-yl)-1,3,5-triazine-2,4-diamine]
[1]
  pIC50: 8.15
HeLa cell line; [3]
  pIC50: 5.42

## CCOc1cc(F)c(Cn2nc(-c3nc4c(c(Nc5ccncc5)n3)OCC(=O)N4)c(C)c2C2CC2)c(F)c1 [Example 2-1-32, 2-[5-cyclopropyl-1-(4-ethoxy-2,6-difluorobenzyl)-4-methyl-1H-pyrazol-3-yl]-4-(pyridin-4-ylamino)-6H-pyrimido[5,4-b][1,4]oxazin-7(8H)-one]
[1]; [2]
  pIC50: 7.92
HeLa cell line
  pIC50: < 5.00

## CCNC(=O)Nc1nc(-c2nn(Cc3c(F)cc(OCC)cc3F)c(C3CC3)c2C)nc(Nc2ccncn2)c1OC [Example 2-1-15, 1-{2-[5-cyclopropyl-1-(4-ethoxy-2,6-difluorobenzyl)-4-methyl-1H-pyrazol-3-yl]-5-methoxy-6-(pyrimidin-4-ylamino)pyrimidin-4-yl}-3-ethylurea]
[1]; [2]
  pIC50: 6.47

## CCOc1cc(F)c(Cn2nc(-c3nc(N)nc(Nc4ccnnc4)n3)c(C)c2C2CC2)c(F)c1 [Example 2-1-24, 6-[5-cyclopropyl-1-(4-ethoxy-2,6-difluorobenzyl)-4-methyl-1H-pyrazol-3-yl]-N-(pyridazin-4-yl)-1,3,5-triazine-2,4-diamine]
[1]
  pIC50: 6.89
HeLa cell line; [3]
  pIC50: 5.22

## CCOc1cc(F)c(Cn2nc(-c3nc4c(c(Nc5ccncn5)n3)OCC(=O)N4)c(C)c2C2CC2)c(F)c1 [Example 2-1-33, 2-[5-cyclopropyl-1-(4-ethoxy-2,6-difluorobenzyl)-4-methyl-1H-pyrazol-3-yl]-4-(pyrimidin-4-ylamino)-6H-pyrimido[5,4-b][1,4]oxazin-7(8H)-one]
[1]; [2]
  pIC50: 7.47
HeLa cell line
  pIC50: 5.00

## CCNC(=O)Nc1cc(Nc2ccncn2)nc(-c2nn(Cc3c(F)cc(OCC)cc3F)c(C3CC3)c2C)n1 [Example 2-1-11, 1-{2-[5-cyclopropyl-1-(4-ethoxy-2,6-difluorobenzyl)-4-methyl-1H-pyrazol-3-yl]-6-(pyrimidin-4-ylamino)pyrimidin-4-yl}-3-ethylurea]
[1]; [2]
  pIC50: 6.89
HeLa cell line
  pIC50: 5.31

## CCOc1cc(F)c(Cn2nc(-c3nc(N)cc(Nc4ccnnc4)n3)c(C)c2C2CC2)c(F)c1 [Example 2-1-23, 2-[5-cyclopropyl-1-(4-ethoxy-2,6-difluorobenzyl)-4-methyl-1H-pyrazol-3-yl]-N-(pyridazin-4-yl)pyrimidine-4,6-diamine]
[1]; [2]
  pIC50: 7.74
HeLa cell line
  pIC50: 5.22

## CCOc1cc(F)c(Cn2nc(-c3nc(Nc4ccnc(OC)c4)cc(Nc4ccnc(OC)c4)n3)c(C)c2C2CC2)c(F)c1 [Example 2-2-2, 2-[5-cyclopropyl-1-(4-ethoxy-2,6-difluorobenzyl)-4-methyl-1H-pyrazol-3-yl]-N,N′-bis(2-methoxypyridin-4-yl)pyrimidine-4,6-diamine]
[1]
  pIC50: ≤ 4.70

## CCOc1cc(F)c(Cn2nc(-c3nc(Nc4ccncn4)c(N4CCOCC4)c(Nc4ccncn4)n3)c(C)c2C2CC2)c(F)c1 [Example 2-2-7, 2-[5-cyclopropyl-1-(4-ethoxy-2,6-difluorobenzyl)-4-methyl-1H-pyrazol-3-yl]-5-(morpholin-4-yl)-N,N′-di(pyrimidin-4-yl)pyrimidine-4,6-diamine]
[1]
  pIC50: 6.85

## CCOc1cc(F)c(Cn2nc(-c3nc(Nc4ccncc4)nc(Nc4ccncc4)n3)c(C)c2C2CC2)c(F)c1 [Example 2-2-8, 6-[5-cyclopropyl-1-(4-ethoxy-2,6-difluorobenzyl)-4-methyl-1H-pyrazol-3-yl]-N,N′-di(pyridin-4-yl)-1,3,5-triazine-2,4-diamine]
[1]
  pIC50: 7.17

## CCOc1cc(F)c(Cn2nc(-c3nc(NC(=O)NC4CCCCC4)cc(Nc4ccncc4)n3)c(C)c2C2CC2)c(F)c1 [Example 2-1-12, 1-cyclohexyl-3-{2-[5-cyclopropyl-1-(4-ethoxy-2,6-difluorobenzyl)-4-methyl-1H-pyrazol-3-yl]-6-(pyridin-4-ylamino)pyrimidin-4-yl}urea]
[1]; [2]
  pIC50: 6.62

## CCOc1cc(F)c(Cn2nc(-c3nc(Nc4ccnnc4)nc(Nc4ccnnc4)n3)c(C)c2C2CC2)c(F)c1 [Example 2-2-11, 6-[5-cyclopropyl-1-(4-ethoxy-2,6-difluorobenzyl)-4-methyl-1H-pyrazol-3-yl]-N,N′-di(pyridazin-4-yl)-1,3,5-triazine-2,4-diamine]
[1]
  pIC50: 5.26
